In ChEMBL document CHEMBL1137971, “Potent small molecule CCR1 antagonists” (Bioorg Med Chem Lett, 2004):
pIC50: −log10 of the molar value.

Columns and labels:
[1] = target: T1, C-C chemokine receptor type 1 (Homo sapiens, UniProt P32246); assay: Inhibition of CCL3 binding to C-C chemokine receptor type 1
T1 sequence (P32246 whole entry): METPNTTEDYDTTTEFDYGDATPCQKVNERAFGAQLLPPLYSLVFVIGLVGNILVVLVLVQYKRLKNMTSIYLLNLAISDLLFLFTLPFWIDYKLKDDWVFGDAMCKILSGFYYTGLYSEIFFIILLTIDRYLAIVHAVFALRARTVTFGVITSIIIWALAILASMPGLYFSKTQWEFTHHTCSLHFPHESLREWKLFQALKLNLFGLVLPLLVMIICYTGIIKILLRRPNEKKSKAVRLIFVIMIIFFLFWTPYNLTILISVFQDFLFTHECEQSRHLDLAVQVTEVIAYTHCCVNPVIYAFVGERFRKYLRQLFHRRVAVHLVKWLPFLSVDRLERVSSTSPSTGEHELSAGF

THP-1 [2] = assay: Inhibition of CCL3 induced chemotaxis in THP-1 cells; format: functional, cell-based; conditions: Homo sapiens
THP-1 [3] = assay: Inhibition of CCL3 induced chemotaxis in THP-1 cells; Not active; format: functional, cell-based, Homo sapiens
Homo sapiens = species on record: Homo sapiens; assay: Compound inhibits CCL3 induced CD11b up-regulation on monocytes in human whole blood; format: functional, organism-based

Row | pIC50 [1] | pIC50 (THP-1 [2]) | IC50 (THP-1 [3]) | pIC50 (Homo sapiens) | Structure (SMILES)
1 | < 4.49 | < 4.60 |  |  | CNC(=O)[C@H](CC(C)C)C[C@H](O)[C@H](Cc1ccccc1)NC(=O)c1cnccn1
2 | 4.35 | 5.34 |  |  | CC1(C)CC([C@H](C[C@H](O)[C@H](Cc2ccccc2)NC(=O)c2cnc3ccccc3n2)C(N)=O)CC(C)(C)C1
3 | 6.24 | 5.62 |  |  | CNC(=O)[C@H](CC(C)C)C[C@H](O)[C@H](Cc1ccccc1)NC(=O)c1nccc2ccccc12
4 | 4.73 | 5.37 |  |  | CNC(=O)[C@H](CC(C)C)C[C@H](O)[C@H](Cc1ccccc1)NC(=O)c1ccnc2ccccc12
5 | 7.55 | 8.70 |  |  | CC(C)CC[C@H](C[C@H](O)[C@H](Cc1ccccc1)NC(=O)c1cnc2ccccc2n1)C(N)=O
6 | 7.66 | 8.10 |  |  | CNC(=O)[C@H](CCC(C)C)C[C@H](O)[C@H](Cc1ccccc1)NC(=O)c1cnc2ccccc2n1
7 | 4.78 | < 4.60 |  |  | CNC(=O)[C@H](CC(C)C)C[C@H](O)[C@H](Cc1ccccc1)NC(=O)c1cc2ccccc2nc1O
8 | 4.99 | < 4.60 |  |  | CNC(=O)[C@H](CC(C)C)C[C@H](O)[C@H](Cc1ccccc1)NC(=O)c1ccc2ccccc2c1
9 | 7.32 | 7.92 |  |  | NC(=O)[C@H](CC1CCCC1)C[C@H](O)[C@H](Cc1ccccc1)NC(=O)c1cnc2ccccc2n1
10 | 5.59 | 5.52 |  |  | CNC(=O)[C@H](CC(C)C)C[C@H](O)[C@H](Cc1ccc(F)cc1)NC(=O)c1cnc2ccccc2n1
11 | 6.21 | 5.89 |  |  | CNC(=O)[C@H](CC(C)C)C[C@H](O)[C@H](Cc1ccc(O)cc1)NC(=O)c1cnc2ccccc2n1
12 | 5.59 | 5.96 |  |  | CNC(=O)[C@H](CC(C)C)C[C@H](O)[C@H](Cc1ccccc1)NC(=O)c1cnnc2ccccc12
13 | 4.26 | < 4.60 |  |  | CN(C)CC[C@H](C[C@H](O)[C@H](Cc1ccccc1)NC(=O)c1cnc2ccccc2n1)C(N)=O
14 | 5.38 |  | Not Active |  | CC[C@H](C)[C@H](NC(=O)c1cnc2ccccc2n1)[C@@H](O)C[C@@H](CC(C)C)C(=O)NC
15 | 6.29 |  | Not Active |  | CNC(=O)[C@H](CC(C)C)C[C@H](O)[C@H](Cc1ccccc1)NC(=O)c1cncc(Br)c1
16 | 5.54 | 5.70 |  |  | CNC(=O)[C@H](CC(C)C)C[C@H](O)[C@H](Cc1ccc(OC)cc1)NC(=O)c1cnc2ccccc2n1
17 | 5.60 | 5.48 |  |  | CNC(=O)[C@H](CC(C)C)C[C@H](O)[C@H](Cc1ccccc1)NC(=O)c1ccc2ncccc2c1

Row | pIC50 [1] | pIC50 (THP-1 [2]) | IC50 (THP-1 [3]) | pIC50 (Homo sapiens) | Structure (SMILES)
18 | 5.46 | 4.90 |  |  | NC(=O)[C@@H](C[C@H](O)[C@H](Cc1ccccc1)NC(=O)c1cnc2ccccc2n1)C1CCOCC1
19 | 6.55 | 6.92 |  |  | NC(=O)[C@H](Cc1ccccc1)C[C@H](O)[C@H](Cc1ccccc1)NC(=O)c1cnc2ccccc2n1
20 | 7.19 | 7.19 |  |  | CNC(=O)[C@H](CC(C)C)C[C@H](O)[C@H](Cc1ccccc1)NC(=O)c1cnc2ccccc2n1
21 |  | 6.08 |  | ~5.30 | CNC(=O)[C@H](CC(C)C)C[C@H](O)[C@H](CC1CCCCC1)NC(=O)c1cnc2ccccc2c1
22 | < 4.49 | < 4.60 |  |  | CNC(=O)[C@H](CC(C)C)C[C@H](O)[C@H](Cc1ccccc1)NC(=O)c1cccc2cccnc12
23 | 7.59 | 7.55 |  |  | NC(=O)[C@@H](C[C@H](O)[C@H](Cc1ccccc1)NC(=O)c1cnc2ccccc2n1)C1CCCC1
24 | 5.29 | 5.18 |  |  | CNC(=O)[C@H](CC(C)C)C[C@H](O)[C@H](Cc1ccccc1)NC(=O)c1cncc2ccccc12
25 | 8.10 | 8.30 |  |  | NC(=O)[C@@H](C[C@H](O)[C@H](Cc1ccccc1)NC(=O)c1cnc2ccccc2n1)C1CCCCC1
26 |  | 6.34 |  |  | CNC(=O)[C@H](CC(C)C)C[C@H](O)[C@H](Cc1ccccc1)NC(=O)c1cnc2ccccc2c1
27 | < 4.49 | < 4.60 |  |  | CNC(=O)[C@H](CC(C)C)C[C@H](O)[C@H](Cc1ccccc1)NC(=O)c1cccnc1
28 | 7.82 | 8.30 |  |  | CC1CC([C@H](C[C@H](O)[C@H](Cc2ccccc2)NC(=O)c2cnc3ccccc3n2)C(N)=O)CC(C)O1 (stereo not given in full)
29 | 5.34 | < 4.60 |  |  | NC(=O)[C@H](CCO)C[C@H](O)[C@H](Cc1ccccc1)NC(=O)c1cnc2ccccc2n1
30 | 6.38 | 7.16 |  |  | CC(C)CCC[C@H](C[C@H](O)[C@H](Cc1ccccc1)NC(=O)c1cnc2ccccc2n1)C(N)=O
31 | 6.89 | 6.05 |  |  | CNC(=O)[C@H](CC(C)C)C[C@H](O)[C@H](Cc1ccccc1)NC(=O)c1ccc2ccccc2n1
32 | 6.80 | 6.82 |  |  | CNC(=O)[C@H](CC(C)C)C[C@H](O)[C@H](Cc1ccc(Cl)c(Cl)c1)NC(=O)c1cnc2ccccc2n1
33 | 6.17 | 6.25 |  |  | CNC(=O)[C@H](CC(C)C)C[C@H](O)[C@H](CC1CCCCC1)NC(=O)c1cnc2ccccc2n1
